Measurements from PubChem BioAssay (NCI).
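Each compound was tested at five concentrations against cells in 96-well plates for 48 hours. TGI denotes the concentration required for complete inhibition of growth.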

How the values were obtained:
Assay in all cases: NCI anticancer screen, dose series, 48 h
NCI-H23 lung = tested on: NCI-H23 lung
UO-31 renal = tested on: UO-31 renal
HCT-116 colon = tested on: HCT-116 colon
MDA-MB-435 = tested on: MDA-MB-435
ACHN renal = tested on: ACHN renal
HS 578T breast = tested on: HS 578T breast
U251 CNS = tested on: U251 CNS
LOX IMVI melanoma = tested on: LOX IMVI melanoma
DU-145 prostate = tested on: DU-145 prostate
HL-60(TB) leukemia = tested on: HL-60(TB) leukemia
HOP-92 NSCLC = tested on: HOP-92 NSCLC
RPMI-8226 leukemia = tested on: RPMI-8226 leukemia
SR leukemia = tested on: SR leukemia

SMILES	TGI (NCI-H23 lung) [µM]	TGI (UO-31 renal) [µM]	TGI (HCT-116 colon) [µM]	TGI (MDA-MB-435) [µM]	TGI (ACHN renal) [µM]	TGI (HS 578T breast) [µM]	TGI (U251 CNS) [µM]	TGI (LOX IMVI melanoma) [µM]	TGI (DU-145 prostate) [µM]	TGI (HL-60(TB) leukemia) [µM]	TGI (HOP-92 NSCLC) [µM]	TGI (RPMI-8226 leukemia) [µM]	TGI (SR leukemia) [µM]
CC(C)(C)n1c(=O)n2n(c1=O)C1c3cccc4cccc(c34)C2C2c3cccc4cccc(c34)C1n1c(=O)n(C(C)(C)C)c(=O)n12	> 100	> 100	> 100	> 100	> 100	> 100	> 100	> 100	> 100	> 100	> 100	> 100	–
CS(=O)(=O)O[C@H]1[C@H](O)c2ccccc2[C@@H]1N=[N+]=[N-]	> 100	> 100	> 100	> 100	> 100	–	> 100	> 100	> 100	> 100	> 100	> 100	> 100
COc1ccccc1NC(=O)CC(=O)N1N=C(c2ccccc2)C(N=Nc2ccc(Cl)cc2)C1=O (stereo unspecified)	> 100	52.4	> 100	–	47.3	–	> 100	> 100	–	> 100	–	> 100	> 100
COC(=O)[C@]12CSC[C@H]1C[C@H](c1cccc3ccccc13)N2	> 100	> 100	> 100	> 100	> 100	–	> 100	> 100	> 100	–	> 100	> 100	> 100
CC(=O)NNc1nc(C)c(C(=O)/C=C/c2ccc(Cl)c(Cl)c2)s1	> 100	> 100	–	–	> 100	–	> 100	> 100	–	> 100	> 100	> 100	–
COc1cc(/C=C2\N=C(c3ccccc3)N(c3nc4ccc(Sc5ccccc5)cc4[nH]3)C2=O)cc(OC)c1OC	97.3	> 100	55.2	23	57.7	> 100	43.9	61.7	75.8	37.8	> 100	56.4	–
C/C(=N/O)c1sc(-c2nc(C)c(/C(C)=N\O)s2)nc1C	> 100	> 100	> 100	–	> 100	–	> 100	> 100	–	> 100	> 100	> 100	> 100
CCOC(=O)C(NC(=O)CC)(Nc1ccc(F)cc1F)C(F)(F)F (stereo unspecified)	> 100	> 100	> 100	> 100	> 100	> 100	> 100	> 100	–	> 100	–	> 100	> 100
NC(N)=NS(=O)(=O)c1ccc(NC(=O)c2cccc3c(N)c4ccccc4nc23)cc1	> 100	> 100	> 100	–	> 100	–	> 100	> 100	–	–	–	> 100	–
CCCCCCCCCCCCC(Br)C(C)=O (stereo unspecified)	> 100	> 100	> 100	–	> 100	–	> 100	> 100	–	> 100	> 100	–	–
O=c1[nH]c2c(c(=O)[nH]1)C(c1ccc([N+](=O)[O-])cc1)c1c([nH]c(=O)[nH]c1=O)O2	> 100	> 100	> 100	> 100	> 100	> 100	> 100	–	> 100	> 100	–	75	–
O=C(Cc1nc2ccc([N+](=O)[O-])cc2[nH]c1=O)C(=O)Nc1ccccc1[N+](=O)[O-]	> 100	> 100	> 100	–	> 100	–	–	> 100	–	> 100	> 100	–	–
CC(C)C(Sc1nc(-c2ccccc2)c(-c2ccccc2)[nH]1)c1n[nH]c(=S)n1-c1ccccc1 (stereo unspecified)	77.9	57.2	> 100	–	79.5	–	61.3	35.4	–	47.1	72	76	92.3
CN(C)c1ccc(/C=C(\NC(=O)c2ccccc2)C(=O)Nc2cccc(C(=O)NCCCO)c2)cc1	> 100	> 100	> 100	> 100	> 100	> 100	> 100	> 100	> 100	> 100	> 100	> 100	–
O=S(=O)(CCC[C@H]1[C@@H](CCOCc2ccccc2)C2CCCN1O2)c1ccccc1 (stereo partly specified)	> 100	> 100	> 100	> 100	> 100	> 100	> 100	–	–	–	> 100	–	> 100
COC(=O)C(=O)C(/C(=N/N)C(=O)Nc1ccccc1C(N)=O)c1nc2ccc([N+](=O)[O-])cc2[nH]c1=O (stereo unspecified)	> 100	> 100	> 100	–	> 100	–	> 100	> 100	–	> 100	–	> 100	> 100
O=C(O)CCN(CCCN(CCC(=O)O)CCC(=O)O)CCC(=O)O	> 100	–	> 100	–	> 100	–	> 100	> 100	–	> 100	> 100	> 100	–
CC1=C(C(=O)CC(=O)C(=O)Nc2ccc(C)c(C)c2)Sc2ccccc2N1	> 100	> 100	> 100	–	> 100	–	> 100	> 100	–	–	> 100	> 100	–
COC(=O)Cn1c(=O)oc2nc(-c3ccccc3)cc(C(F)(F)F)c21	> 100	> 100	> 100	> 100	> 100	–	> 100	–	> 100	–	89.3	95.8	> 100
C/C=C\C(CC(=O)OC)CC(=O)N(CCC1CN(S(=O)(=O)C(F)(F)F)c2ccccc21)Cc1ccc(OC)cc1OC (stereo unspecified)	> 100	> 100	> 100	> 100	> 100	–	> 100	> 100	–	–	> 100	> 100	–
Cc1ccccc1Nc1nc(NNC(=O)Cc2ccccc2)nc(NNC(=O)c2ccncc2)n1	–	> 10	–	–	–	> 10	> 10	> 10	> 10	> 10	> 10	> 10	> 10
